Assay results taken from patent publication US20260200939A1, “MOLECULAR GLUE DEGRADER COMPOUNDS AND USES THEREOF” (Novartis AG, priority 2022, published 2026).
Blank lines part the entries; values can stand above or below the compound they belong to.

Columns and labels:
CDK4 = target: T1, CDK4 (Homo sapiens, UniProt P11802); experiment: CDK4 Degradation Assay, Western blotting; format: cell-based; settings: for CDK4 degradation, in words: C33A cells, immunoblot
T1 construct: endogenous in cells; host or cells: C33A
Protocol: (§1) C33A cells were purchased from American Type Culture Collection (ATCC) and were cultured in Dulbecco's Modified Eagle Medium (DMEM) containing 10% (v/v) fetal bovine serum (FBS) and maintained at 37° C. with 5% CO2. 22RV1 cells were purchased from the ATCC and were cultured in RPMI-1640 Medium containing 10% (v/v) FBS and maintained at 37° C. with 5% CO2. HEK293T cells were obtained from the UC Berkeley Cell Culture Facility and were cultured in DMEM containing 10% (v/v) FBS and maintained at 37° C. with 5% CO2. K562 cells were obtained from the UC Berkeley Cell Culture Facility and were cultured in Iscove's Modified Dulbecco's Medium (IMDM) containing 10% (v/v) FBS and maintained at 37° C. with 5% CO2. MV-4-11 cells were obtained from the ATCC and were cultured in IMDM containing 10% (v/v) FBS and maintained at 37° C. with 5% CO2. A549 cells were obtained from the ATCC and were cultured in F-12K Medium containing 10% (v/v) FBS and maintained at 37° C. with 5% CO2. Mino cells were obtained from the ATCC and were cultured in RPMI-1640 Medium containing 10% (v/v) FBS and maintained at 37° C. with 5% CO2. LNCaP cells were obtained from the ATCC and were cultured in RPMI-1640 Medium containing 10% (v/v) FBS and maintained at 37° C. with 5% CO2. Unless otherwise specified, all cell culture materials were purchased from Gibco. It is not known whether HEK293T cells are from male or female origin.
(§2) Cells were washed twice with cold PBS, scraped, and pelleted by centrifugation (700 g, 5 min, 4° C.). Pellets were resuspended in PBS, sonicated, clarified by centrifugation (12,000 g, 10 min, 4° C.), and lysate was transferred to new low-adhesion microcentrifuge tubes. Proteome concentrations were determined using BCA assay and lysate was diluted to appropriate working concentrations.
(§3) Proteins were resolved by SDS/PAGE and transferred to nitrocellulose membranes using the Trans-Blot Turbo transfer system (Bio-Rad). Membranes were blocked with 5% BSA in Tris-buffered saline containing Tween 20 (TBS-T) solution for 30 min at RT, washed in TBS-T, and probed with primary antibody diluted in recommended diluent per manufacturer overnight at 4° C. After 3 washes with TBS-T, the membranes were incubated in the dark with IR680- or IR800-conjugated secondary antibodies at 1:10,000 dilution in 5% BSA in TBS-T at RT for 1 h. After 3 additional washes with TBST, blots were visualized using an Odyssey Li-Cor fluorescent scanner. The membranes were stripped using ReBlot Plus Strong Antibody Stripping Solution (EMD Millipore) when additional primary antibody incubations were performed. Antibodies used in this study were CDK4 (Abcam ab108357), Vinculin (Abcam ab129002), GAPDH (Cell Signaling Technology 14C10), RNF126 (Santa Cruz Biotechnology sc-376005), BRD4 (Abcam ab128874), Beta Actin (Cell Signaling Technology 13E5), PDE5 (Abcam ab259945), AR-V7 (Abcam ab273500), c-Abl (Santa Cruz Biotechnology sc-23), SMARCA2 (Abcam ab240648), LRRK2 (Abcam ab133474), BTK (Cell Signaling Technology D3H5), Androgen Receptor (Abcam ab133273).

pure RNF126 protein = target: T2, pure RNF126 protein (Homo sapiens, UniProt Q9BV68); experiment: Mass spectrometry analysis of compound-labeled RNF126 tryptic digests; format: binding
T2 construct: FLAG (C); host or cells: HEK293T

SMARCA2 = target: T3, SMARCA2 (Homo sapiens, UniProt P51531); experiment: SMARCA2 Degradation assay, Western blotting; format: cell-based
T3 construct: endogenous in cells; host or cells: MV-4-11
Protocol: as §1, §2
Proteins were resolved by SDS/PAGE and transferred to nitrocellulose membranes using the Trans-Blot Turbo transfer system (Bio-Rad). […]

Recombinant RNF126 = target: T4, Recombinant RNF126 (Homo sapiens, UniProt Q9BV68); experiment: RNF126 Binding Assay, gel-based ABPP
T4 construct: FLAG (C); host or cells: HEK293T
Protocol: RNF126 mammalian expression plasmid with a C-terminal FLAG tag was purchased from Origene (Origene Technologies Inc., RC204986). The plasmid was transformed into NEB 5-alpha Competent E. coli (DH5) cells (NEB product no. C2987H). The following day, a single transformed colony was used to inoculate 50 ml of nutrient rich LB medium containing kanamycin (50 μg/ml) and was incubated at 37° C. overnight, with agitation (250 rpm). A Miniprep (Qiagen) kit was used to isolate the plasmid before sequence verification with appropriate primers.
HEK293T cells were grown to 30-50% confluency in DMEM supplemented with 10% FBS (Corning) and maintained at 37° C. with 5% CO2. Immediately before transfection, media was replaced with DMEM containing 5% FBS. Each plate was transfected with 24 μg of overexpression plasmid with 24 μL Lipofectamine 3000 (Invitrogen) in Opti-MEM. After 48 h cells were collected in PBS, lysed by sonication, and batch bound with anti-DYKDDDDK resin (GenScript, L00432) for 2 hours. Lysate and resin were washed with PBS and eluted with 133.33 μg/ml 3×FLAG peptide (ApexBio, A6001) in PBS. Five elutions were performed for 15 minutes each. Elutions were concentrated and the protein was stored in PBS. Concentration and purity was determined using the BCA assay and western blotting.
Recombinant RNF126 ([…]) was pre-treated with either DMSO vehicle or covalent ligand at 37° C. for 30 min in 25 μL of PBS, and subsequently treated with of IA-Rhodamine (concentrations designated in figure legends) (Setareh Biotech) at room temperature for 1 h in the dark. The reaction was stopped by addition of 4×reducing Laemmli SDS sample loading buffer (Alfa Aesar). After boiling at 95° C. for 5 min, the samples were separated on precast 4-20% Criterion TGX gels (Bio-Rad). Probe-labeled proteins were analyzed by in-gel fluorescence using a ChemiDoc MP (Bio-Rad).

Androgen Receptor = Androgen Receptor Degradation assay, Western blotting; format: cell-based
Protocol: as §1, §2, §3

AR-V7 = target: T5, AR-V7 (Homo sapiens, UniProt P10275); experiment: AR-V7 degradation in prostate cancer cells, Western blotting; format: cell-based; settings: LNCaP and 22RV1 prostate cancer cells
T5 construct: endogenous in cells; host or cells: 22RV1 and/or LNCaP
T5 sequence (P10275 1-644 isoform P10275-3): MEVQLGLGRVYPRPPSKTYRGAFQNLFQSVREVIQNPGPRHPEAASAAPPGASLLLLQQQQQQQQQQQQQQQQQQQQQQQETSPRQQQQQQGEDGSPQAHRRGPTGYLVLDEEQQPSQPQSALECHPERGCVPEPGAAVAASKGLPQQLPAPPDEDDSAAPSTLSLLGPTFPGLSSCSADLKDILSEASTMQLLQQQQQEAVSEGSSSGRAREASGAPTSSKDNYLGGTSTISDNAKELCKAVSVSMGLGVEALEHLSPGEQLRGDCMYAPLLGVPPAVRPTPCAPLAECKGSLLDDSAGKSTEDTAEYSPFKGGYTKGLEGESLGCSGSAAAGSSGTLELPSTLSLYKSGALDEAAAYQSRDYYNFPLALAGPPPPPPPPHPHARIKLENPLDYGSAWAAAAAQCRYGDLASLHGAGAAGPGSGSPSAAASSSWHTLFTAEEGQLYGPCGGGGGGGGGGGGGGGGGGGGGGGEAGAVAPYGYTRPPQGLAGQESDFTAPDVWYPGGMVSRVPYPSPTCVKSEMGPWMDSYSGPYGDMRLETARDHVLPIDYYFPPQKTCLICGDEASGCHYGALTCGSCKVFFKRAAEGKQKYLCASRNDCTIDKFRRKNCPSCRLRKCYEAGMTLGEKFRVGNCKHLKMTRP
Protocol: as §1, with “LNCaP cells were obtained from the ATCC and were cultured in RPMI-1640 Medium containing 10% (v/v) FBS and maintained at 37° C. with 5% CO2. Unless otherwise specified, all cell culture materials were purchased from Gibco. It is not known whether HEK293T cells are from male or female origin.” left out
Cells were washed twice with cold PBS, scraped, and pelleted by centrifugation (700 g, 5 min, 4° C.). […] Proteome concentrations were determined using BCA assay and lysate was diluted to appropriate working concentrations. […]

T3 sequence (P51531 whole entry): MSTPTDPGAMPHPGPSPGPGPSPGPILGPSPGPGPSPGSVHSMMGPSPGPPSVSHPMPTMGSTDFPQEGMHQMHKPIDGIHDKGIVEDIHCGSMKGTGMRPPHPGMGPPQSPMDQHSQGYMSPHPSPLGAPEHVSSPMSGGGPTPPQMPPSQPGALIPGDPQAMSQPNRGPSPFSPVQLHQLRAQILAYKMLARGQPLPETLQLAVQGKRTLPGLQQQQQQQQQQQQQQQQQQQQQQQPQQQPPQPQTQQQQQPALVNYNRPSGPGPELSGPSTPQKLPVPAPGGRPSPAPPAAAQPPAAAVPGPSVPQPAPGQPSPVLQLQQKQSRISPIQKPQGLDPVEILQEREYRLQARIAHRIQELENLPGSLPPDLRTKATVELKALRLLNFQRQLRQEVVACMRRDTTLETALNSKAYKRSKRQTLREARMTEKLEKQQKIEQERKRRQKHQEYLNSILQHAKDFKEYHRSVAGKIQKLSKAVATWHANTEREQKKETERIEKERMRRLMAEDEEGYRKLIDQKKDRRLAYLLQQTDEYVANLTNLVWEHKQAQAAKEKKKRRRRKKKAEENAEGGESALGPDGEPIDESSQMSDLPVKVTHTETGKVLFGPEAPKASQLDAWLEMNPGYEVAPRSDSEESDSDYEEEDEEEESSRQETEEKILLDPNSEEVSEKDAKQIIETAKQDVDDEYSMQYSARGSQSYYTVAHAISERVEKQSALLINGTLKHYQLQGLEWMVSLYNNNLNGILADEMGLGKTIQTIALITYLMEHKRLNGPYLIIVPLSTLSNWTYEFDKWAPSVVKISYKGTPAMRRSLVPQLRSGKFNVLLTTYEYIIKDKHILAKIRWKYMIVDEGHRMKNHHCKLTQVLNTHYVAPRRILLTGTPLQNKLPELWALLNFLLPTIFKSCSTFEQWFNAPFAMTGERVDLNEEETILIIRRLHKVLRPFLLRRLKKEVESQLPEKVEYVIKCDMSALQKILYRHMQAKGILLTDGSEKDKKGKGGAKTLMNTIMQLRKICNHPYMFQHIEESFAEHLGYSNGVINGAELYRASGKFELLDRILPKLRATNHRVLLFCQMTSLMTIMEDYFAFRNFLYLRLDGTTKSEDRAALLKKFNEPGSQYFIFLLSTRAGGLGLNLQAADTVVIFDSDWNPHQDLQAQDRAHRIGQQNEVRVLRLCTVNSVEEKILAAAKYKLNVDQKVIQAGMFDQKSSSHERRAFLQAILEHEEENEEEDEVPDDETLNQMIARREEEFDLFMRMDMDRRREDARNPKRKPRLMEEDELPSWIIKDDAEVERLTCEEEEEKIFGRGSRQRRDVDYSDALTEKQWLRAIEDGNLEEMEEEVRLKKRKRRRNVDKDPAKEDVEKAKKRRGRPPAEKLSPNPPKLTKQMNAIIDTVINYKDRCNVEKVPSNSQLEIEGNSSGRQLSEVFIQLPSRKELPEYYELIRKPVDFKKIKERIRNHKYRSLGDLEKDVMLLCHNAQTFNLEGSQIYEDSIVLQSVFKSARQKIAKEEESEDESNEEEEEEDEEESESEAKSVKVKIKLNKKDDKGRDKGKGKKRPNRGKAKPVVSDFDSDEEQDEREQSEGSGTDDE
T4 sequence (Q9BV68 whole entry): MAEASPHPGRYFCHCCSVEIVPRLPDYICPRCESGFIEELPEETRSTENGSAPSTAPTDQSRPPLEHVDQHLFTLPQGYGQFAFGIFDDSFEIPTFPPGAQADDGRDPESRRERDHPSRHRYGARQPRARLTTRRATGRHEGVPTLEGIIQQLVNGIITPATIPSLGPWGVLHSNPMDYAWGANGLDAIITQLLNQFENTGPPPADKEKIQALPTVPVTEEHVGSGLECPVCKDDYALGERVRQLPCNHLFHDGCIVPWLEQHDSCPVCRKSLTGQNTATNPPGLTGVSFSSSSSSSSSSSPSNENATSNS
T2 sequence (Q9BV68 whole entry): as above

CDK4 degradation, in words (CDK4): in a dose-responsive manner
adduct on RNF126 by mass spectrometry of tryptic digests (pure RNF126 protein): reacts with C32 of RNF126
Compound: COc1ccc(C(=O)/C=C/C(=O)N2CCN(c3ccc(Nc4ncc5cc(C(=O)N(C)C)n(C6CCCC6)c5n4)nc3)CC2)cc1 [Compound 113, (E)-7-cyclopentyl-2-((5-(4-(4-(4-methoxyphenyl)-4-oxobut-2-enoyl)piperazin-1-yl)pyridin-2-yl)-amino)-N,N-dimethyl-7H-pyrrolo[2,3-d]pyrimidine-6-carboxamide]

binding to RNF126 (gel-based ABPP), in words (Recombinant RNF126): potent binding
Compound: COc1ccc(C(=O)/C=C/C(=O)N2CCN(c3cc(-c4ccccc4O)nnc3N)CC2)cc1 [Compound 128]
degradation of SMARCA2, in words (SMARCA2; MV-4-11 leukemia cancer cells): degradation of SMARCA2 in MV-4-11 leukemia cancer cells cell in a dose-responsive manner

binding to RNF126 (gel-based ABPP), in words (Recombinant RNF126): potent binding
degradation of AR-V7, in words (AR-V7): degradation of AR and AR-V7
Compound: COc1ccc(C(=O)/C=C/C(=O)N2CCN(C(=O)COc3ccc(-c4csc(N5CCOCC5)n4)cc3)CC2)cc1 [Compound 132]
degradation of AR, in words (Androgen Receptor; LNCaP and 22RV1 prostate cancer cells): degradation of AR and AR-V7

CDK4 degradation, in words (CDK4): capable to degrading CDK4
binding to RNF126 (gel-based ABPP), in words (Recombinant RNF126): maintained binding to RNF126
Compound: COc1ccc(C(=O)/C=C/C(=O)N2CCN(c3ccc(Nc4ncc5c(C)c(C(C)=O)c(=O)n(C6CCCC6)c5n4)nc3)CC2)cc1 [Compound 136]

DC50 (Androgen Receptor): > 10 µM
Compound: COc1ccc(C(=O)/C=C/C(=O)N[C@H]2C[C@H](NC(=O)CN3CCN(c4ccc(C(=O)N[C@H]5CC[C@H](Oc6ccc(C#N)c(Cl)c6)CC5)nn4)CC3)C2)cc1 [Compound 200, N-((1r,4r)-4-(3-chloro-4-cyanophenoxy)cyclohexyl)-6-(4-(2-(((1r,3r)-3-((E)-4-(4-methoxyphenyl)-4-oxobut-2-enamido)cyclobutyl)amino)-2-oxoethyl)piperazin-1-yl)pyridazine-3-carboxamide]

DC50 (Androgen Receptor): > 10 µM
Compound: COc1ccc(C(=O)/C=C/C(=O)N[C@H]2C[C@H](NC(=O)CN3CCN(c4ccc(C(=O)N[C@H]5CC[C@H](Oc6ccc(C#N)c(Cl)c6)CC5)nn4)CC3)C2)c(F)c1 [Compound 201, N-((1r,4r)-4-(3-chloro-4-cyanophenoxy)cyclohexyl)-6-(4-(2-(((1r,3r)-3-((E)-4-(2-fluoro-4-methoxyphenyl)-4-oxobut-2-enamido)cyclobutyl)amino)-2-oxoethyl)piperazin-1-yl)pyridazine-3-carboxamide]

DC50 (CDK4): 1 to 10 µM
Compound: COc1ccc(C(=O)/C=C/C(=O)N2CCCN(c3ccc(Nc4ncc5cc(C(=O)N(C)C)n(C6CCCC6)c5n4)nc3)CC2)cc1 [Compound 275, (E)-7-cyclopentyl-2-((5-(4-(4-(4-methoxyphenyl)-4-oxobut-2-enoyl)-1,4-diazepan-1-yl)pyridin-2-yl)amino)-N,N-dimethy1-7H-pyrrolo[2,3-d]pyrimidine-6-carboxamide]

DC50 (CDK4): 1 to 10 µM
Compound: COc1ccc(C(=O)/C=C/C(=O)N2CCN(c3ccc(Nc4ncc5cc(C(=O)N(C)C)n(C6CCCC6)c5n4)nc3)C[C@@H]2C)cc1 [Compound 276, (S,E)-7-cyclopentyl-2-((5-(4-(4-(4-methoxyphenyl)-4-oxobut-2-enoyl)-3-methylpiperazin-1-yl)pyridin-2-yl)amino)-N,N-dimethyl-7H-pyrrolo[2,3-d]pyrimidine-6-carboxamide]

DC50 (SMARCA2): > 5 µM
Compound: COc1ccc(C(=O)/C=C/C(=O)N[C@H]2C[C@H](NC(=O)CN3CCN(c4cc(-c5ccccc5O)nnc4N)CC3)C2)c(F)c1 [Compound 282, (E)-N-((1r,3r)-3-(2-(4-(3-amino-6-(2-hydroxyphenyl)pyridazin-4-yl)piperazin-1-yl)acetamido)cyclobutyl)-4-(2-fluoro-4-methoxyphenyl)-4-oxobut-2-enamide]

DC50 (SMARCA2): > 5 µM
Compound: COc1ccc(C(=O)/C=C/C(=O)N[C@H]2C[C@H](NC(=O)CN3CCN(c4cc(-c5ccccc5O)nnc4N)CC3)C2)cc1 [Compound 283, (E)-N-((1r,3r)-3-(2-(4-(3-amino-6-(2-hydroxyphenyl)pyridazin-4-yl)piperazin-1-yl)acetamido)cyclobutyl)-4-(4-methoxyphenyl)-4-oxobut-2-enamide]

DC50 (CDK4): > 10 µM
Compound: CN(C)C(=O)c1cc2cnc(Nc3ccc(N4CCN(C(=O)/C=C/C(=O)c5ccc(Br)cc5)CC4)cn3)nc2n1C1CCCC1 [Compound 284, (E)-2-((5-(4-(4-(4-bromophenyl)-4-oxobut-2-enoyl)piperazin-1-yl)pyridin-2-yl)amino)-7-cyclopentyl-N,N-dimethyl-7H-pyrrolo[2,3-d]pyrimidine-6-carboxamide]

DC50 (Androgen Receptor): > 10 µM
Compound: COc1ccc(C(=O)/C=C/C(=O)N[C@H]2C[C@H](NC(=O)CN3CCN(c4ccc(C(=O)N[C@H]5CC[C@H](Oc6ccc(C#N)c(Cl)c6)CC5)nn4)CC3)C2)c(Cl)c1 [Compound 286, N-((1r,4r)-4-(3-chloro-4-cyanophenoxy)cyclohexyl)-6-(4-(2-(((1r,3r)-3-((E)-4-(2-chloro-4-methoxyphenyl)-4-oxobut-2-enamido)cyclobutyl)amino)-2-oxoethyl)piperazin-1-yl)pyridazine-3-carboxamide]
